The values that follow come from patent US7675626B2, “Method of detecting drug resistant microorganisms by surface plasmon resonance system” (priority 2006, dated 2010).

Values joined by “and” are separate entries in the source; they are usually repeats but may differ in a detail not shown here. Equal entries are not always repeated.

The test system of experiment [1] is ampicillin resistant strain (JM109 transformed by ampicillin resistant plasmid). The experiment can be described thus: SPR angle shift, ampicillin resistance test (resistant strain). Type of experiment: cell-based, E. coli. From the text: (§1) On setting up the surface plasmon resonance, a He—Ne laser (wavelength=632.8 nm) was used as the light source. The laser beam passed through the polarizer to block […], and only p-polarization component could excite surface plasmon. The transmitted p-polarization beam was split into two beams via beam splitter (BS), one beam was detected by photodiode as reference light, and the other beam injected into prism at specific range of angles to decide surface plasmon angle. The reflected light was detected via the photodiode in the opposite side of prism as signal light. Surface plasmon was excited on Au metal film deposited on flat glass surface which attached on prism via matching oil. The current signal detected by photodiode was expanded via amplifier and transformed into voltage signal via 16-bit A/D converter (Adventech PCI-1716) The Y-axial represented the ratio of reference light and signal light, X-axial represented the incident angle of interface between prism and sample. Incident angle was controlled by controller which motor motorized stage with two arms. When surface plasmon resonance angle was detected, the energy of injected light was absorbed and surface plasmon resonance was achieved. This experimental setup was build by National Cheng-Kung University, department of Engineering Science, Adaptic Photonic Lab.
(§2) The bacteria used herein were JM109 strain, which was recA1 mutation that helped ensure insert stability. EndA1 mutation improved the quality of the plasmid miniprep DNA. HsdR17 mutation prevented the cleavage of cloned DNA by an endogenous endonuclease system.
(§3) Penicillin was referred to β-lactam drugs because of the importance of the β-lactam ring. An intact ting structure was essential for antibacterial activity. The cleavage of the ring by penicillinase (β-lactamase) inactivated the drug. The antibiotic bacteria strain used herein was transformed by ampicillin resistant plasmid that translated β-lactamase to cleave the ring of ampicillin. The bacteria was picked out by loop and planted in 5 ml LB broth over night, then transferred into 100 ml LB and incubated for two hours.
(§4) Diluted Poly-L-Lysine solution with deionized water prior to coating slides. The flat glass surface deposited with Au metal film was immersed in poly-L-lysine solution (concentration is […]) for at least 24 hours to interact with Au metal film, cells can be immobilized on biochips after incubation.
(§5) The sterilized DI water was injected into the flow chamber for 30 min to stabilize the system when biochip coated with poly-L-lysine was assembled. After balancing, the incubated LA broth was injected into the flow chamber for 210 minutes to cover the AU metal film. Subsequently, antibiotic solution was injected, and the surface plasmon resonance curve was observed on the computer.
(§6) Surface plasmon resonance system measured SPR angle continuously, and compared SPR curve of antibiotic susceptible and antibiotic resistant strain under the same condition. The SPR curve of antibiotic resistant strain was depicted in FIG. 2, and antibiotic susceptible strain SPR curve was depicted in FIG. 3. Experimental data represented that after 30 minutes of balance of the SPR system, the injection of bacteria LB broth increased the SPR angle. After 210 minutes, the extra bacteria were washed with deionized water and presented the decrease of SPR angle, then balanced for 10-20 minutes. Antibiotic solution was injected after the balance curve. […]

Experiment [2] concerns ampicillin susceptible strain (JM109). In words: SPR angle shift, ampicillin sensitivity test (susceptible strain). Type of experiment: cell-based, E. coli. The following applies: for susceptible surface plasmon resonance angle shift/resistant surface plasmon resonance angle shift: ratio susceptible/resistant strain.
Excerpt: as §1, §2, §3, §4, §5, §6
For orientation: Surface plasmon resonance follows binding to a sensor surface in real time, without labels.

As to `CC1(C)S[C@@H]2[C@H](NC(=O)[C@H](N)c3ccccc3)C(=O)N2[C@H]1C(=O)O` [ampicillin], the “Ampicillin resistant surface plasmon resonance angle shift” value in experiment [1] (Average of 4 repeats) is on record as −0.02935. Also, the “drop of SPR angle” value is listed as −0.02128 degree in experiment [1] (standard kinetic plot (FIG. 2), after injection of antibiotics); −0.00332 degree in experiment [1] (thirty minutes after antibiotic treatment (FIG. 4)); −0.06876 degree in experiment [2] (standard kinetic plot (FIG. 3), after injection of antibiotics); −0.01702 degree in experiment [2] (thirty minutes after antibiotic treatment (FIG. 5)). Also, the “drop of SPR angle of resistant strain compared to susceptible strain” value is recorded as “approximately ⅓” in experiment [1] (standard kinetic plot (FIGS. 2, 3)) and “approximately ⅕” in experiment [1] (thirty minutes after antibiotic treatment). In addition, the “Ampicillin susceptible surface plasmon resonance angle shift” value in experiment [2] (Average of 4 repeats) was −0.0659. For the same molecule, the “susceptible surface plasmon resonance angle shift/resistant surface plasmon resonance angle shift” value in experiment [2] (Average of 4 repeats) was 2.377; in experiment [2] (single repeat experiments) it was 1.9834 and 2.6208 and 3.2312 and 1.6729.
